# Assay results as given in ChEMBL document CHEMBL1201862, “PubChem BioAssay data set” (2004).
#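 Assay format: 96-well plates, 48-hour exposure. Abbreviation: GI50, concentration required for 50% inhibition of growth.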 Calls of active or inactive are those of the source. No stated cut-off is given here; in the data, active = GI50 up to about 1.1 µM and inactive = higher.
# What was measured:
# Assay in all cases: NCI anticancer screen, dose series, 48 h
# 786-0 = tested on: 786-0
# A498 = tested on: A498
# A549 = tested on: A549
# ACHN = tested on: ACHN
# CAKI-1 = tested on: CAKI-1
# CCRF-CEM = tested on: CCRF-CEM
# COLO 205 = tested on: COLO 205
# DLD-1 = tested on: DLD-1
# DMS-114 = tested on: DMS-114
# DMS-273 = tested on: DMS-273
# EKVX = tested on: EKVX
# HCC 2998 = tested on: HCC 2998
# HCT-116 = tested on: HCT-116
# HCT-15 = tested on: HCT-15
# HL-60 = tested on: HL-60
# HOP-18 = tested on: HOP-18
# HOP-62 = tested on: HOP-62
# HOP-92 = tested on: HOP-92
# HT-29 = tested on: HT-29
# IGROV-1 = tested on: IGROV-1
# K562 = tested on: K562
# KM-20L2 = tested on: KM-20L2
# KM12 = tested on: KM12
# M14 = tested on: M14
# M19-MEL = tested on: M19-MEL
# MOLT-4 = tested on: MOLT-4
# Malme-3M = tested on: Malme-3M
# NCI-H226 = tested on: NCI-H226
# NCI-H23 = tested on: NCI-H23
# NCI-H460 = tested on: NCI-H460
# NCI-H522 = tested on: NCI-H522
# OVCAR-3 = tested on: OVCAR-3
# OVCAR-4 = tested on: OVCAR-4
# OVCAR-5 = tested on: OVCAR-5
# OVCAR-8 = tested on: OVCAR-8
# RPMI-8226 = tested on: RPMI-8226
# RXF 393 = tested on: RXF 393
# RXF 631 = tested on: RXF 631
# SF-268 = tested on: SF-268
# SF-295 = tested on: SF-295
# SF-539 = tested on: SF-539
# SK-MEL-28 = tested on: SK-MEL-28
# SK-MEL-2 = tested on: SK-MEL-2
# SK-MEL-5 = tested on: SK-MEL-5
# SK-OV-3 = tested on: SK-OV-3
# SN12C = tested on: SN12C
# SNB-19 = tested on: SNB-19
# SNB-75 = tested on: SNB-75
# SNB-78 = tested on: SNB-78
# SR = tested on: SR
# SW-620 = tested on: SW-620
# TK-10 = tested on: TK-10
# U-251 = tested on: U-251
# UACC-257 = tested on: UACC-257
# UACC-62 = tested on: UACC-62
# UO-31 = tested on: UO-31
# LXFL 529 = tested on: LXFL 529
# XF498 = tested on: XF498
# LOX IMVI = tested on: LOX IMVI
smiles,measurement,setting,value
NC1=NN(c2ccccc2)C(=O)C1C(=O)C(=O)Nc1ccc(Cl)c(Cl)c1 (stereo unspecified),GI50,786-0,> 100 µM (inactive)
same,GI50,A498,> 100 µM (inactive)
same,GI50,A549,> 100 µM (inactive)
same,GI50,ACHN,84.5 µM (inactive)
same,GI50,CAKI-1,55.3 µM (inactive)
same,GI50,CCRF-CEM,96.4 µM (inactive)
same,GI50,COLO 205,> 100 µM (inactive)
same,GI50,DLD-1,> 100 µM (inactive)
same,GI50,DMS-114,> 100 µM (inactive)
same,GI50,DMS-273,> 100 µM (inactive)
same,GI50,EKVX,> 100 µM (inactive)
same,GI50,HCC 2998,> 100 µM (inactive)
same,GI50,HCT-116,> 100 µM (inactive)
same,GI50,HCT-15,68.7 µM
same,GI50,HL-60,86.1 µM (inactive)
same,GI50,HOP-18,> 100 µM (inactive)
same,GI50,HOP-62,> 100 µM (inactive)
same,GI50,HOP-92,> 100 µM (inactive)
same,GI50,HT-29,> 100 µM (inactive)
same,GI50,IGROV-1,> 100 µM (inactive)
same,GI50,K562,32 µM (inactive)
same,GI50,KM-20L2,> 100 µM (inactive)
same,GI50,KM12,> 100 µM (inactive)
same,GI50,M14,> 100 µM (inactive)
same,GI50,M19-MEL,> 100 µM (inactive)
same,GI50,MOLT-4,> 100 µM (inactive)
same,GI50,Malme-3M,> 100 µM (inactive)
same,GI50,NCI-H226,> 100 µM (inactive)
same,GI50,NCI-H23,> 100 µM (inactive)
same,GI50,NCI-H460,> 100 µM (inactive)
same,GI50,NCI-H522,84.9 µM (inactive)
same,GI50,OVCAR-3,> 100 µM (inactive)
same,GI50,OVCAR-4,> 100 µM (inactive)
same,GI50,OVCAR-5,> 100 µM (inactive)
same,GI50,OVCAR-8,> 100 µM (inactive)
same,GI50,RPMI-8226,> 100 µM (inactive)
same,GI50,RXF 393,> 100 µM (inactive)
same,GI50,RXF 631,> 100 µM (inactive)
same,GI50,SF-268,> 100 µM (inactive)
same,GI50,SF-295,> 100 µM (inactive)
same,GI50,SF-539,> 100 µM (inactive)
same,GI50,SK-MEL-28,> 100 µM (inactive)
same,GI50,SK-MEL-2,> 100 µM (inactive)
same,GI50,SK-MEL-5,> 100 µM (inactive)
same,GI50,SK-OV-3,> 100 µM (inactive)
same,GI50,SN12C,> 100 µM (inactive)
same,GI50,SNB-19,1.06 µM (active)
same,GI50,SNB-75,37.2 µM (inactive)
same,GI50,SNB-78,> 100 µM (inactive)
same,GI50,SR,> 100 µM (inactive)
same,GI50,SW-620,> 100 µM (inactive)
same,GI50,TK-10,> 100 µM (inactive)
same,GI50,U-251,> 100 µM (inactive)
same,GI50,UACC-257,> 100 µM (inactive)
same,GI50,UACC-62,> 100 µM (inactive)
same,GI50,UO-31,> 100 µM (inactive)
CC(C)N(C(=O)C12C3C4C1C1C4(C#N)C3C12C#N)C(C)C (stereo unspecified),GI50,786-0,> 100 µM (inactive)
same,GI50,A498,> 100 µM (inactive)
same,GI50,A549,> 100 µM (inactive)
same,GI50,ACHN,> 100 µM (inactive)
same,GI50,CAKI-1,> 100 µM (inactive)
same,GI50,CCRF-CEM,> 100 µM (inactive)
same,GI50,COLO 205,> 100 µM (inactive)
same,GI50,DLD-1,> 100 µM (inactive)
same,GI50,DMS-114,> 100 µM (inactive)
same,GI50,EKVX,> 100 µM (inactive)
same,GI50,HCC 2998,> 100 µM (inactive)
same,GI50,HCT-15,> 100 µM
same,GI50,HOP-18,> 100 µM (inactive)
same,GI50,HOP-62,> 100 µM (inactive)
same,GI50,HOP-92,> 100 µM (inactive)
same,GI50,HT-29,> 100 µM (inactive)
same,GI50,IGROV-1,> 100 µM (inactive)
same,GI50,K562,> 100 µM (inactive)
same,GI50,KM-20L2,> 100 µM (inactive)
same,GI50,LXFL 529,> 100 µM (inactive)
same,GI50,M14,> 100 µM (inactive)
same,GI50,M19-MEL,> 100 µM (inactive)
same,GI50,MOLT-4,> 100 µM (inactive)
same,GI50,Malme-3M,> 100 µM (inactive)
same,GI50,NCI-H226,> 100 µM (inactive)
same,GI50,NCI-H23,> 100 µM (inactive)
same,GI50,NCI-H460,> 100 µM (inactive)
same,GI50,OVCAR-3,> 100 µM (inactive)
same,GI50,OVCAR-4,> 100 µM (inactive)
same,GI50,OVCAR-5,> 100 µM (inactive)
same,GI50,OVCAR-8,> 100 µM (inactive)
same,GI50,RPMI-8226,> 100 µM (inactive)
same,GI50,RXF 393,> 100 µM (inactive)
same,GI50,RXF 631,> 100 µM (inactive)
same,GI50,SF-268,> 100 µM (inactive)
same,GI50,SF-295,> 100 µM (inactive)
same,GI50,SF-539,> 100 µM (inactive)
same,GI50,SK-MEL-28,> 100 µM (inactive)
same,GI50,SK-MEL-5,> 100 µM (inactive)
same,GI50,SK-OV-3,> 100 µM (inactive)
same,GI50,SN12C,> 100 µM (inactive)
same,GI50,SNB-19,> 100 µM (inactive)
same,GI50,SNB-78,> 100 µM (inactive)
same,GI50,SW-620,> 100 µM (inactive)
same,GI50,TK-10,> 100 µM (inactive)
same,GI50,U-251,> 100 µM (inactive)
same,GI50,UACC-257,> 100 µM (inactive)
same,GI50,UACC-62,> 100 µM (inactive)
same,GI50,UO-31,> 100 µM (inactive)
same,GI50,XF498,> 100 µM (inactive)
O=[N+]([O-])c1cccc(C(O)/C(=N/O)c2nc3ccc(Cl)cc3nc2O)c1 (stereo unspecified),GI50,786-0,> 100 µM (inactive)
same,GI50,A549,> 100 µM (inactive)
same,GI50,ACHN,> 100 µM (inactive)
same,GI50,CCRF-CEM,> 100 µM (inactive)
same,GI50,COLO 205,> 100 µM (inactive)
same,GI50,DLD-1,> 100 µM (inactive)
same,GI50,DMS-114,> 100 µM (inactive)
same,GI50,EKVX,> 100 µM (inactive)
same,GI50,HCC 2998,> 100 µM (inactive)
same,GI50,HCT-116,> 100 µM (inactive)
same,GI50,HL-60,> 100 µM (inactive)
same,GI50,HOP-18,> 100 µM (inactive)
same,GI50,HOP-62,> 100 µM (inactive)
same,GI50,HOP-92,> 100 µM (inactive)
same,GI50,HT-29,> 100 µM (inactive)
same,GI50,IGROV-1,> 100 µM (inactive)
same,GI50,K562,> 100 µM (inactive)
same,GI50,KM-20L2,> 100 µM (inactive)
same,GI50,KM12,> 100 µM (inactive)
same,GI50,LOX IMVI,> 100 µM (inactive)
same,GI50,LXFL 529,> 100 µM (inactive)
same,GI50,M14,> 100 µM (inactive)
same,GI50,M19-MEL,> 100 µM (inactive)
same,GI50,MOLT-4,> 100 µM (inactive)
same,GI50,Malme-3M,> 100 µM (inactive)
same,GI50,NCI-H226,> 100 µM (inactive)
same,GI50,NCI-H23,> 100 µM (inactive)
same,GI50,NCI-H460,> 100 µM (inactive)
same,GI50,NCI-H522,> 100 µM (inactive)
same,GI50,OVCAR-3,> 100 µM (inactive)
same,GI50,OVCAR-4,> 100 µM (inactive)
same,GI50,OVCAR-5,> 100 µM (inactive)
same,GI50,OVCAR-8,> 100 µM (inactive)
same,GI50,RPMI-8226,> 100 µM (inactive)
same,GI50,RXF 393,> 100 µM (inactive)
same,GI50,RXF 631,> 100 µM (inactive)
same,GI50,SF-295,> 100 µM (inactive)
same,GI50,SF-539,> 100 µM (inactive)
same,GI50,SK-MEL-28,> 100 µM (inactive)
same,GI50,SK-MEL-5,> 100 µM (inactive)
same,GI50,SK-OV-3,> 100 µM (inactive)
same,GI50,SN12C,> 100 µM (inactive)
same,GI50,SNB-19,> 100 µM (inactive)
same,GI50,SNB-75,> 100 µM (inactive)
same,GI50,SW-620,> 100 µM (inactive)
same,GI50,TK-10,> 100 µM (inactive)
same,GI50,UACC-257,> 100 µM (inactive)
same,GI50,UACC-62,> 100 µM (inactive)
same,GI50,UO-31,> 100 µM (inactive)
same,GI50,XF498,> 100 µM (inactive)
